pIC50: −log10 of the molar value.
Legend:
[1] = molecular target: BCL6 (Homo sapiens, UniProt P41182); details: well-characterized Boehringer Ingelheim inhibitor; read-out: in vitro IC50; cited from earlier work
[2] = molecular target: GSK3beta (Homo sapiens, UniProt P49841); assay: UV-B induced denaturation of cell lysates, immunoblot of soluble fraction, GSK3beta; format: binding; details: lysates exposed to UV-B for 4 min; FIG. 29B
Sequence of GSK3beta (P49841 whole entry, species assumed): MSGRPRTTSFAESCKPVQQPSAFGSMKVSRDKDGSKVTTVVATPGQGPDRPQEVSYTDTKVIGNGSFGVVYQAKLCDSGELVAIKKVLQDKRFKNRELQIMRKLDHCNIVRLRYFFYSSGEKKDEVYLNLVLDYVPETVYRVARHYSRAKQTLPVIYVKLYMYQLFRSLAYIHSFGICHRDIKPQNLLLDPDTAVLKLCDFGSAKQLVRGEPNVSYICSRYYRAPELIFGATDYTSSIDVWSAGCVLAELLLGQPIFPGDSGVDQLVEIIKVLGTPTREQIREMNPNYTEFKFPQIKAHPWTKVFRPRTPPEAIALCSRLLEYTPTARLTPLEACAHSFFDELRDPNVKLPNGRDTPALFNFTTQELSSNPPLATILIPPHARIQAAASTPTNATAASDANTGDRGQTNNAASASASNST

CNC(=O)COc1cc2cc(Nc3nc(N4CCC(C(=O)N(C)C)CC4)ncc3Cl)cc(OC)c2n(C)c1=O [BI-3812]
pIC50 [1]: ~8.52

Cc1c[nH]c(-c2cnc(NCCNc3ccc(C#N)cn3)nc2-c2ccc(Cl)cc2Cl)n1 [CHIR99021]
stabilization of GSK3beta protein from UV-B induced denaturation [2]: stabilization of the GSK3beta protein

Source: patent US12510537B2, “High throughput drug screening methods” (NERD BIO LLC, priority 2020, dated 2025)
